Measured values: paper PMC3883354 (Bioorganic & medicinal chemistry, 2013)

Biological target: T1, human GVIA iPLA2 (Homo sapiens, UniProt O60733)
T1 sequence (O60733 1-806): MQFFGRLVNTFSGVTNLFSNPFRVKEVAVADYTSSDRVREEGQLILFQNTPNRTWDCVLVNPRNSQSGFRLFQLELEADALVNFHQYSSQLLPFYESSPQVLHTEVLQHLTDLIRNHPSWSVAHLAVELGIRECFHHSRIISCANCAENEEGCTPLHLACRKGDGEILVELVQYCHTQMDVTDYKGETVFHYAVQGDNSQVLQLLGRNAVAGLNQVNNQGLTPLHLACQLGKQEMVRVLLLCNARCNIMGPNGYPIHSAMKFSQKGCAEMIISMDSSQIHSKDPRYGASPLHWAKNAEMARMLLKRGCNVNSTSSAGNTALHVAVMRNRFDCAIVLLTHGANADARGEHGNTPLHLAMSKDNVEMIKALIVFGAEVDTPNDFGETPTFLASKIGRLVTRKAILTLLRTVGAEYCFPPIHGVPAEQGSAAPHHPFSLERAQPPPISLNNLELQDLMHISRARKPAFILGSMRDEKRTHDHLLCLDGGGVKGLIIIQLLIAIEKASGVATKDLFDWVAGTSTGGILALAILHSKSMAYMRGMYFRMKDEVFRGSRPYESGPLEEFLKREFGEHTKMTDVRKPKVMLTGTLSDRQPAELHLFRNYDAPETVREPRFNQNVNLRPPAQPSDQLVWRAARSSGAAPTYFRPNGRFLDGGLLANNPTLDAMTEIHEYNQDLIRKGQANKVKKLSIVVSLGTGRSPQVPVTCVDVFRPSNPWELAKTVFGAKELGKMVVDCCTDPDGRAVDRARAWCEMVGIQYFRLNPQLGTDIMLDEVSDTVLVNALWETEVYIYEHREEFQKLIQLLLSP
Test: mixed micelle-based modified Dole assay, GVIA iPLA2 inhibition
Format: biochemical
Details: for fold weaker towards iPLA2 than FKGK11: compared with FKGK11

| SMILES | times weaker inhibitor towards GVIA iPLA2 than FKGK18 (compared with FKGK18) | fold weaker towards iPLA2 than FKGK11 |
| --- | --- | --- |
| O=C(CCCCc1cccc2ccccc12)C(F)(F)F [5a, 1,1,1-Trifluoro-6-(naphthalen-1-yl)hexan-2-one] | 9 times | – |
| O=C(CCCCc1ccc(-c2ccccc2)cc1)C(F)(F)F [5e, 6-(Biphenyl-4-yl)-1,1,1-trifluorohexan-2-one] | – | 13 fold |
| O=C(CCCCc1ccc(-c2ccccc2)cc1)C(F)(F)C(F)(F)F [6e, 7-(Biphenyl-4-yl)-1,1,1,2,2-pentafluoroheptan-3-one] | – | ninefold weaker |
